Results: patent publication US6204293A, “Inhibitors of protein isoprenyl transferases” (University of Pittsburgh, priority 1998, dated 2001)
Where a name gives a salt, the structure may show the parent alone.

Target: T1, Rat brain protein farnesyltransferase (Rattus norvegicus, UniProt Q02293+Q04631)
T1 construct: Rat brain protein farnesyltransferase activity is measured; from tissue; host or cells: rat brain
Test: % inhibition of farnesylation, scintillation proximity assay with biotin-K Ras B fragment
Assay type: biochemical
Conditions: Table 1; 1 × 10^-5 M
Method in brief: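 Scintillation proximity read-out of farnesylation, using a biotinylated K Ras B fragment (0.1 mM final) in place of biotin-lamin. Enzyme purified from rat brain; results given as % inhibition.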

T1 sequence (Q02293 whole entry, one chain of several): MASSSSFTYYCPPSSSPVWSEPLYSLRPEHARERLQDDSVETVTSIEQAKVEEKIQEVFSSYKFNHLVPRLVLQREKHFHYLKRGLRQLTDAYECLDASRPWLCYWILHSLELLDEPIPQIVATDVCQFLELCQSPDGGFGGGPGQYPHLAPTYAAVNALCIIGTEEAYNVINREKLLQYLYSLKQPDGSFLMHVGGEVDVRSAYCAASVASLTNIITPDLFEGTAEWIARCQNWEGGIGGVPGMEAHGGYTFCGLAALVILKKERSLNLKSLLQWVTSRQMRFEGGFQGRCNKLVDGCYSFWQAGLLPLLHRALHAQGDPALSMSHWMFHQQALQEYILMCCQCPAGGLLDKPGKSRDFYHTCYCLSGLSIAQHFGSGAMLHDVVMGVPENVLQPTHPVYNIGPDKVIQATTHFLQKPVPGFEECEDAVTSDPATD

| SMILES | % inhibition at 1 × 10^-5 M |
| --- | --- |
| CSCC[C@H](NC(=O)c1ccc(CN[C@H](CC2CCCCC2)[C@H](O)[C@H](O)CC(C)C)cc1-c1ccccc1)C(=O)O [Example 715] | 67% |
| CSCC[C@H](NC(=O)c1ccc(CNc2ccc(F)cc2)cc1-c1ccccc1)C(=O)O [Example 687] | 78% |
| CSCC[C@H](NC(=O)c1ccc(CNc2ccc(C3CCCCC3)cc2)cc1-c1ccccc1)C(=O)O [Example 699] | 74% |

Same assay, conditions: Table 2; 1 × 10^-6 M

| SMILES | % inhibition at 1 × 10^-6 M |
| --- | --- |
| CSCC[C@H](NC(=O)c1ccc(CN(Cc2cncs2)S(C)(=O)=O)cc1-c1ccccc1C)C(=O)O [Example 878] | 95% |
| CSCC[C@H](NC(=O)c1ccc(CN[C@@H](CC2CCCCC2)[C@@H](O)[C@@H](O)CC(C)C)cc1-c1ccccc1)C(=O)O [Example 716] | 69% |
| CSCC[C@H](NC(=O)c1ccc(CN(Cc2ccccc2)c2ccccc2SC)cc1-c1ccccc1C)C(=O)[O-].[Li+] [Example 850] | 90% |
| CSCC[C@H](NC(=O)c1ccc(CN(Cc2ccccc2)Cc2cccc(Oc3ccccc3)c2)cc1-c1ccccc1C)C(=O)O [Example 514] | 94% |
| CSCC[C@H](NC(=O)c1ccc(C=CCCCc2ccccc2)cc1-c1ccccc1C)C(=O)O [Example 480] | 87% |
| CSCC[C@H](NC(=O)c1ccc(CN(Cc2ccccc2)Cc2ccco2)cc1-c1ccccc1C)C(=O)O [Example 504] | 90% |
| CSCC[C@H](NC(=O)c1ccc(CNc2ccccc2F)cc1-c1ccccc1)C(=O)O [Example 642] | 48% |
| CSCC[C@H](NC(=O)c1ccc(CN[C@H](C)CC2CCCCC2)cc1-c1ccccc1C)C(=O)O [Example 613] | 97% |
| CSCC[C@H](NC(=O)c1ccc(CN[C@H](CO)CC2CCCCC2)cc1-c1ccccc1C)C(=O)O [Example 617] | 99% |
| CSCCC(NC(=O)c1ccc(NC(=O)Cc2cscn2)cc1-c1ccccc1)C(=O)O (stereo not drawn) [Example 162] | 12% |
| COc1ccccc1CCC(=O)Nc1ccc(C(=O)N[C@@H](CCSC)C(=O)O)c(-c2ccccc2C)c1 [Example 544] | 35% |
| CSCC[C@H](NC(=O)c1ccc(CCCCC2CCCCC2)cc1-c1ccccc1C)C(=O)O [Example 478] | 98% |

Same assay, conditions: Table 3; 1 × 10^-7 M

| SMILES | % inhibition at 1 × 10^-7 M |
| --- | --- |
| CCCCN(CCCC)C(=O)CN(C)Cc1ccc(C(=O)N[C@@H](CCSC)C(=O)O)c(-c2ccccc2C)c1 [Example 913] | 89% |

Same assay, conditions: Table 4; 1 × 10^-8 M

| SMILES | % inhibition at 1 × 10^-8 M |
| --- | --- |
| CCCCS(=O)(=O)N(CCC1CCCCC1)Cc1ccc(C(=O)N[C@@H](CCSC)C(=O)O)c(-c2ccccc2C)c1 [Example 916] | 96% |
| CC[C@H](CC1CCCCC1)NCc1ccc(C(=O)N[C@@H](CCSC)C(=O)O)c(-c2ccccc2C)c1 [Example 614] | 92% |
| CCSC[C@H](CCc1ccccc1)NCc1ccc(C(=O)N[C@@H](CCSC)C(=O)O)c(-c2ccccc2C)c1 [Example 995] | 92% |

Same assay, conditions: read-out: % inhibition at 0.01 μM (**)

| SMILES | inhibition at 0.01 µM |
| --- | --- |
| CSCC[C@H](NC(=O)c1ccc(COC(CCC2CCCCC2)c2ccnnc2)cc1-c1ccccc1C)C(=O)O (stereo partly drawn) [Example 1349, N-[4-(1-(Pyridazin-4-yl)-3-cyclohexylpropan-1-yloxymethyl)-2-(2-methylphenyl)benzoyl]methionine lithium salt] | 92% |
| CSCC[C@H](NC(=O)c1ccc(COC(CCC2CCCCC2)c2ccns2)cc1-c1ccccc1C)C(=O)O (stereo partly drawn) [Example 1223, N-[4-(1-(Isothiaz-5-yl)-3-cyclohexylpropan-1-yloxymethyl)-2-(2-methylphenyl)benzoyl]methionine lithium salt] | 91% |

Same assay, conditions: read-out: % inhibition at 0.01 μM (**); Table 6; ** footnote 0.01 μM (title: 0.01 mM)

| SMILES | inhibition at 0.01 µM |
| --- | --- |
| CSCC[C@H](NC(=O)c1ccc(CO[C@@H](CC2CCCCC2)C(=O)N2CCOCC2)cc1-c1ccccc1C)C(=O)O [Example 1053, N-[4-(3-cyclohexyl-N-morpholin-4-ylpropion-2-yloxymethyl)-2-(2-methylphenyl)benzoyl]methionine, lithium salt] | 60% |
| CSCC[C@H](NC(=O)c1ccc(COC(CCC2CCCCC2)c2cnnn2C)cc1-c1ccccc1C)C(=O)O (stereo partly drawn) [Example 1225, N-[4-(1-(1-Methyl-1,2,3-triaz-5-yl)-3-cyclohexylpropan-1-yloxymethyl)-2-(2-methylphenyl)benzoyl]methionine lithium salt] | 92% |

Same assay, conditions: read-out: % inhibition at 1 × 10^-6 M

| SMILES | inhibition at 1 µM |
| --- | --- |
| CSCC[C@H](NC(=O)c1ccc(COCc2ccc(-c3ccc(F)cc3)o2)cc1-c1cccc2ccccc12)C(=O)O [Example 868, N-[4-(5-(4-fluorophenyl)furan-2-ylmethoxymethyl)-2-naphth-1-ylbenzoyl]methionine lithium salt] | 89% |
| CSCC[C@H](NC(=O)c1ccc(COCc2ccc(-c3ccccc3)o2)cc1-c1ccccc1C)C(=O)O [Example 327, [4-(5-phenylfur-2-ylmethyloxymethyl)-2-(2-methylphenyl)benzoyl]methionine lithium salt] | 97% |
| CSCC[C@H](NC(=O)c1ccc(COC2CCN(C(=O)OC(C)(C)C)CC2)cc1-c1ccccc1C)C(=O)O [Example 808, N-[4-(1-t-butoxycarbonylpiperidin-4-yloxymethyl)-2-(2-methylphenyl)benzoyl]methionine lithium salt] | 88% |

Same assay, conditions: read-out: % inhibition at 1 × 10^-6 M; Table 2; 1 × 10^-6 M

| SMILES | inhibition at 1 µM |
| --- | --- |
| CSCC[C@H](NC(=O)c1ccc(COCCCC2CCCCC2)cc1-c1ccccc1C)C(=O)O [Example 405, 4-(3-cyclohexylpropoxy)methyl-2-(2-methylphenyl)benzoylmethionine lithium salt.] | 98% |
| CSCC[C@H](NC(=O)c1ccc(COC2CCN(Cc3ccccc3)C2)cc1-c1ccccc1C)C(=O)O (stereo partly drawn) [Example 987, N-[4-(1-benzylpyrrolidin-3-oxymethyl)-2-(2-methylphenyl)benzoyl]methionine] | 93% |
| CSCC[C@H](NC(=O)c1ccc(COCc2ccccc2)cc1-c1ccccc1)C(=O)O [Example 575, N-[4-(benzyloxymethyl)-2-phenylbenzoyl]methionine] | 70% |
| CSCC[C@H](NC(=O)c1ccc(OCCCOc2ccccc2)cc1-c1ccccc1C)C(=O)O [Example 566, N-[4-(3-phenoxy)propoxy-2-(2-methylphenyl)benzoyl]methionine] | 98% |
| CSCC[C@H](NC(=O)c1ccc(CSc2nc3ccccc3o2)cc1-c1ccccc1C)C(=O)O [Example 322, [4-(2-benzoxazolylthiomethyl)-2-(2-methylphenyl)benzoyl]methionine] | 98% |

Same assay, conditions: read-out: % inhibition at 1 × 10^-7 M

| SMILES | inhibition at 0.1 µM |
| --- | --- |
| CSCC[C@H](NC(=O)c1ccc(COCc2ccc(-c3ccc(F)cc3)o2)cc1-c1ccc(F)cc1Cl)C(=O)O [Example 869, N-[4-(5-(4-fluorophenyl)furan-2-ylmethoxymethyl)-2-(2-chloro-4-fluorophenyl)benzoyl]methionine lithium salt] | 92% |
| CSCC[C@H](NC(=O)c1ccc(COCc2ccc(-c3cccc(C(F)(F)F)c3)o2)cc1-c1ccccc1C)C(=O)O [Example 441, N-[4-(5-(3-trifluoromethylphenyl)furan-2-ylmethoxymethyl)-2-(2-methylphenyl)benzoyl]methionine lithium salt] | 91% |
| CSCC[C@H](NC(=O)c1ccc(COCc2cnc(-c3ccc(Cl)cc3)o2)cc1-c1ccccc1C)C(=O)O [Example 894, N-[4-(2-(4-chlorophenyl)oxazol-5-ylmethoxymethyl)-2-(2-methylphenyl)benzoyl]methionine lithium salt] | 89% |
| CSCC[C@H](NC(=O)c1ccc(COCc2cccc3ccccc23)cc1-c1ccccc1C)C(=O)O [Example 584, N-[4-(naphth-1-ylmethoxymethyl)-2-(2-methylphenyl)benzoyl]methionine lithium salt] | 96% |
| CSCC[C@H](NC(=O)c1ccc(COCc2ccc(-c3ccccc3F)o2)cc1-c1ccccc1C)C(=O)O [Example 437, N-[4-(5-(2-fluorophenyl)furan-2-ylmethoxymethyl)-2-(2-methylphenyl)benzoyl]methionine lithium salt] | 89% |

Same assay, conditions: read-out: % inhibition at 1 × 10^-7 M; Table 3; 1 × 10^-7 M

| SMILES | inhibition at 0.1 µM |
| --- | --- |
| CSCC[C@H](NC(=O)c1ccc(COCc2ccc(-c3ccc(F)c(Cl)c3)o2)cc1-c1ccccc1C)C(=O)O [Example 450, N-[4-(5-(3-chloro-4-fluorophenyl)furan-2-ylmethoxymethyl)-2-(2-methylphenyl)benzoyl]methionine lithium salt] | 96% |
| CSCC[C@H](NC(=O)c1ccc(CSc2nnc[nH]2)cc1-c1ccccc1C)C(=O)O [Example 735] | 96% |

Same assay, conditions: read-out: % inhibition at 1 × 10^-8 M

| SMILES | inhibition at 0.01 µM |
| --- | --- |
| CSCC[C@H](NC(=O)c1ccc(COCCCC23CC4CC(CC(C4)C2)C3)cc1-c1ccccc1C)C(=O)O [Example 599, N-[4-(3-adamant-1-ylpropoxymethyl)-2-(2-methylphenyl)benzoyl]methionine lithium salt] | 86% |
| CSCC[C@H](NC(=O)c1ccc(COCc2oc(-c3ccc(Cl)cc3)c(Cl)c2Cl)cc1-c1ccccc1C)C(=O)O [Example 829, N-[4-(3,4-dichloro-5-(4-chlorophenyl)furan-2-ylmethoxymethyl)-2-(2-methylphenyl)benzoyl]methionine lithium salt] | 92% |

Same assay, conditions: read-out: % inhibition at 1 × 10^-8 M; Table 4; 1 × 10^-8 M

| SMILES | inhibition at 0.01 µM |
| --- | --- |
| CCCCC(Cc1ccccc1Cl)OCc1ccc(C(=O)N[C@@H](CCSC)C(=O)O)c(-c2ccccc2C)c1 (stereo partly drawn) [Example 943, N-[4-(1-(2-chlorophenyl)hexan-2-yloxymethyl)-2-(2-methylphenyl)benzoyl]methioninelithium salt] | 79% |
| CSCC[C@H](NC(=O)c1ccc(CO[C@@H](CC2CCCCC2)CN2CCOCC2)cc1-c1ccccc1C)C(=O)O [Example 885, N-[4-(3-Cyclohexyl-1-morpholin-4-ylpropan-2-yl)oxymethyl-2-(2-methylphenyl)benzoyl]methionine trifluoroacetate salt] | 95% |
